# Where two headings read alike, the source gives them in different places.
# Experiment: Determination of metabolic stability in human liver microsomes
# Format: in vitro ADME
# Conditions: for half-life at 1 μM: pH 7.4, read-out: In vitro half-life t1/2 in human liver microsomes; for half-life at 1 μM / In vitro half-life t1/2 in human liver microsomes: 0.5 mg/mL human liver microsomes, 1 μM test compound, 2 mM NADPH, 37° C., 0-30 minutes; for stabilization in comparison to undeuterated counterpart (in words): repeated experiment, Table 4, vs cilostazol (106, 100) or dehydrocilostazol (110)
# Procedure: Human liver microsomes (20 mg/mL) were obtained from Xenotech, LLC (Lenexa, Kans.). β-nicotinamide adenine dinucleotide phosphate, reduced form (NADPH), magnesium chloride (MgCl2), and dimethyl sulfoxide (DMSO) were purchased from Sigma-Aldrich.
# 7.5 mM stock solutions of test compounds, as well as cilostazol and 7-ethoxycoumarin (as a positive control) were prepared in DMSO. The 7.5 mM stock solutions were diluted to 50 μM in acetonitrile (ACN). The 20 mg/mL human liver microsomes were diluted to 0.625 mg/mL in 0.1 M potassium phosphate buffer, pH 7.4, containing 3 mM MgCl2. The diluted microsomes were added to wells of a 96-well deep-well polypropylene plate in triplicate. Ten μL of the 50 μM test compound was added to the microsomes and the mixture was pre-warmed for 10 minutes. Reactions were initiated by addition of pre-warmed NADPH solution. The final reaction volume was 0.5 mL and contained 0.5 mg/mL human liver microsomes, 1 μM test compound, and 2 mM NADPH in 0.1 M potassium phosphate buffer, pH 7.4, and 3 mM MgCl2. The reaction mixtures were incubated at 37° C., and 50 μL aliquots were removed at 0, 5, 10, 20, and 30 minutes and added to shallow-well 96-well plates which contained 50 μL of ice-cold ACN with internal standard to stop the reactions. The plates were stored at 4° C. for 20 minutes after which 100 μL of water was added to the wells of the plate before centrifugation to pellet precipitated proteins. Supernatants were transferred to another 96-well plate and analyzed for amounts of parent remaining by LC-MS/MS using an Applied Bio-systems API 4000 mass spectrometer.
# The in vitro t1/2s for test compounds were calculated from the slopes of the linear regression of % parent remaining (ln) vs incubation time relationship: in vitro t1/2=0.693/k, where k=−[slope of linear regression of % parent remaining(ln) vs incubation time]. Data analysis was performed using Microsoft Excel Software.
Compound,half-life at 1 μM (first experiment (Table 3)),half-life at 1 μM (repeated experiment (Table 4)),In vitro half-life t1/2 in human liver microsomes (repeated experiment (Table 4)),stabilization in comparison to undeuterated counterpart (in words),further results
"[2H]C1([2H])CCC(n2nnnc2CCCCOc2ccc3c(c2)CCC(=O)N3)CC1 [Compound 107, 6-(4-(1-(4,4-d2-Cyclohexyl)-1H-tetrazol-5-yl)butoxy)-3,4-dihydroquinolin-2(1H)-one]",0.595 h,–,–,–,–
"[2H]C1([2H])CCC(n2nnnc2CCCCOc2ccc3c(c2)C([2H])([2H])C([2H])([2H])C(=O)N3)CC1 [Compound 101, 6-(4-(1-(4,4-d2-Cyclohexyl)-1H-tetrazol-5-yl)butoxy)-3,3,4,4-d4-dihydroquinolin-2(1H)-one]",0.753 h,–,–,–,–
"[2H]C1([2H])CC(n2nnnc2CCCCOc2ccc3c(c2)CCC(=O)N3)CC([2H])([2H])C1([2H])[2H] [Compound 112, 6-(4-(1-(3,3,4,4,5,5-d6-Cyclohexyl)-1H-tetrazol-5-yl)butoxy)-3,4-dihydroquinolin-2(1H)-one]",–,1.32 h,–,–,–
"[2H]C1([2H])C(=O)Nc2ccc(OCCCCc3nnnn3C3([2H])C([2H])([2H])C([2H])([2H])C([2H])([2H])C([2H])([2H])C3([2H])[2H])cc2C1([2H])[2H] [Compound 100, 6-(4-(1-(Cyclohexyl-d11)-1H-tetrazol-5-yl)butoxy)-3,3,4,4-d4-dihydroquinolin-2(1H)-one]",–,–,1.64 h,stabilized,"In vitro half-life t1/2 in human liver microsomes (first experiment (Table 3)): 0.695 h; stabilization in human liver microsomes (in words) (previous (first) experiment, Table 3): no stabilization"
"O=C1CCc2cc(OCCCCc3nnnn3C3CCCCC3)ccc2N1 [Cilostazol, 6-[4-(1-Cyclohexyl-1H-tetrazol-5-yl)butoxy]-3,4-dihydro-2(1H)-quinolinone]",0.78 h,–,1.03 h,–,–
"[2H]C1([2H])C([2H])([2H])C([2H])([2H])C([2H])(n2nnnc2CCCCOc2ccc3c(c2)CCC(=O)N3)C([2H])([2H])C1([2H])[2H] [Compound 106, 6-(4-(1-(Cyclohexyl-d11)-1H-tetrazol-5-yl)butoxy)-3,4-dihydroquinolin-2(1H)-one]",1.32 h,–,1.45 h,stabilized,–
[2H]C1([2H])C([2H])([2H])C([2H])([2H])C([2H])(n2nnnc2CCCCOc2ccc3[nH]c(=O)ccc3c2)C([2H])([2H])C1([2H])[2H] [Compound 110],1.24 h,–,Stable*,stabilized,–
"O=c1ccc2cc(OCCCCc3nnnn3C3CCCCC3)ccc2[nH]1 [Dehydrocilostazol, reference compound]",–,1.31 h,–,–,–
"[2H]C1([2H])CC(n2nnnc2CCCCOc2ccc3[nH]c(=O)ccc3c2)CC([2H])([2H])C1([2H])[2H] [Compound 113, 6-(4-(1-(3,3,4,4,5,5-d6-Cyclohexyl)-1H-tetrazol-5-yl)butoxy)-3,4-dihydroquinolin-2(1H)-one]",–,1.49 h,–,–,–
